Consider three molecules from US20100120848A1, “STABLE PHARMACEUTICAL FORMULATIONS OF MONTELUKAST SODIUM” (Teva Pharmaceutical Industries Ltd., priority 2006, published 2010).

Molecules are shown by their SMILES.

The nature of the data set: Excipient compatibility: montelukast sodium/excipient mixtures stored at 55° C. for 48 hours, sulfoxide of formula (I) by HPLC. Format: physicochemical. The note with it: for % Sulfoxide of Formula (I), 0 hours: by weight relative to montelukast sodium, before storage. Here is the method:
Comparative testing with montelukast sodium was performed to determine the conditions which cause the degradation of montelukast sodium into the corresponding sulfoxide. Compositions of montelukast sodium and each of the excipients of the prior art tablets were prepared and subjected to stressed storage conditions. The amount of the corresponding sulfoxide present in each of the compositions was measured by high performance liquid chromatography (“HPLC”) both before and after storage.
Sample mixtures of montelukast sodium and each of the individual excipients were prepared. Each sample was stored at 55° C. for 48 hours. The percentage by weight of sulfoxide of formula (I) relative to montelukast sodium in each sample was measured at 0 hours and at 48 hours by HPLC. HPLC was performed on a Beta-Basic C18 analytical column (150×4.6 mm I.D.), packed with 5 μm diameter particles (Thermo Election Corporation). The mobile phase was a mixture of acetonitrile and 20 mM KH2PO4 (60:40) and its flow-rate was 1.5 mL/min. The UV detector was set at 225 nm or 281 nm and the column temperature was 40° C.

With `CC(C)(O)c1ccccc1CC[C@@H](SCC1(CC(=O)[O-])CC1)c1cccc(/C=C/c2ccc3ccc(Cl)cc3n2)c1.[Na+]` [Sample 1, Montelukast sodium], the “% Sulfoxide of Formula (I), 0 hours” value is recorded as 0.63%.

Take `CC(C)(O)c1ccccc1CC[C@@H](SCC1(CC(=O)[O-])CC1)c1cccc(/C=C/c2ccc3ccc(Cl)cc3n2)c1.[Na+]` [Sample 7, Montelukast sodium]: the “% Sulfoxide of Formula (I), 0 hours” value was 0.26%.

Regarding `CC(C)(O)c1ccccc1CC[C@@H](SCC1(CC(=O)[O-])CC1)c1cccc(/C=C/c2ccc3ccc(Cl)cc3n2)c1.[Na+]` [montelukast sodium, [R-(E)]-1-[[[1-[3-[2-(7-chloro-2-quinolinyl)ethenyl]phenyl]-3-[2-(1-hydroxy-1-methylethyl)phenyl]propyl]thio]methyl]cyclopropaneacetic acid, monosodium salt], for the setting “in the presence of microcrystalline cellulose, stressed storage conditions”, the “increase of the amount of the corresponding sulfoxide in the composition over the storage period” value is recorded as “over 250%”.
